Measurements from patent US12201625B2, “Single nucleotide polymorphic alleles of human DP-2 gene for detection of susceptibility to hair growth inhibition by PGD2” (THE TRUSTEES OF THE UNIVERSITY OF PENNSYLVANIA, priority 2015, dated 2025).

Assays:
[1] = system: C57BL mice; assay: Topical application to depilated back skin of mice, hair cycle stage and hair length; assay type: in vivo, mouse
Experimental: Animal studies: The back skins of C57BL mice at 6-7 week were depilated. DP-2 antagonists were dissolved in 95% EtOH/2% Glycerol/3% PEG. 100 μL of each compound was spread on the shaved back skin once daily for 2 weeks starting from day 8 post depilation. At day 22 post depilation hair shafts were plucked for hair length measurement and skins were harvested for histological assessment of hair cycle stages.

[2] = system: human hair follicles; assay: Hair follicle organ (explant) culture, growth over seven days; assay type: cell-based
Source text: Tissue: Scalp was obtained from normally discarded human skin samples from CHTN and from men and women undergoing hair transplantation (IRB exempted study Protocol #818053). Hair follicle organ culture: Hair follicles were microdissected from discarded tissues from hair transplant patients and cultured for seven days as described by Philpott et al. (J. Dermatol. Sci. Suppl: S55-72. (1994)) in the presence or absence of PGD2 and/or DP-2 antagonist, with a change of culture medium every two days. Hair follicles were photographed at the beginning and end of the culture period. Hair follicle growth was measured from the photographs using Image J software.

[3] = system: human hair follicles; settings: cited from earlier work
[4] = system: mouse hair follicles; settings: cited from earlier work
[5] = system: hair follicle keratinocytes; assay: Immunofluorescence staining of cultured hair follicles for Ki67 and active caspase 3; assay type: cell-based, human
Experimental: Immunostaining: Immunofluorescence analysis with anti-Ki67 and anti-Caspase-3 was performed on cryosections of cultured hair follicles or whole mount hair follicles fixed in 4% PFA. Images were photographed with Leica fluorescence microscope.

[6] = topical once per day for two weeks, day 22 post depilation

Compound | hair follicles entering catagen (hair cycle stage) ([1]; topical once per day for two weeks from day 8 post depilation, harvested day 22) | hair shaft length [1, 6] | skin area with hair follicles continuing to grow [1, 6] | anti-PGD2 activity at high doses ([2]; 99.5% pure preparation of AM211, FIG. 3B) | rescue of hair follicles from growth inhibition by PGD2 ([2]; AM211 at 10 nM, PGD2 10 μM, 7 days) | anti-PGD2 effect at high doses ([2]; AM211 preparation purified to 95% homogeneity, FIG. 3A) | hair growth [3] | hair growth [4] | apoptosis of hair follicle keratinocytes (active caspase 3) [5] | proliferation of hair follicle keratinocytes (Ki67) [5] | patients whose hair follicles exhibited PGD2-mediated growth inhibition ([2]; Group 1, of 35 patients tested) | patients whose hair follicles exhibited PGD2-mediated growth inhibition ([2]; Group 2, of 65 patients tested) | patients whose hair follicles exhibited PGD2-mediated growth inhibition ([2]; Groups 1 and 2 combined, 100 samples) | growth of human hair follicles in explant culture ([2]; PGD2 10 μM added to culture medium, 7 days) | inhibitory effect on hair growth, dose dependence ([2]; explant culture, FIG. 1B)
CCN(Cc1cc(C(F)(F)F)ccc1-c1cc(CC(=O)O)ccc1OC)C(=O)NCc1ccccc1 [AM211] | dose-dependent delay in hair follicles entering catagen | longer hair shaft | larger area with hair follicles continuing to grow | sustained anti-PGD2 activity | rescued hair follicles from the inhibition by PGD2 | reduction in anti-PGD2 effect | – | – | – | – | – | – | – | – | –
CCCCC/C=C/C=C1/C(=O)C=C[C@@H]1C/C=C\CCCC(=O)O [15-dPGJ2, 15-deoxy-D12,14-prostaglandin J2] | – | – | – | – | – | – | inhibit hair growth | inhibit hair growth | – | – | – | – | – | – | –
CCCCC[C@H](O)/C=C/[C@H]1C(=O)C[C@H](O)[C@@H]1C/C=C\CCCC(=O)O [PGD2, prostaglandin D2] | – | – | – | – | – | – | inhibit hair growth | inhibit hair growth | promoted apoptosis | suppressed proliferation | 21 | 31 | 52 | severely inhibited | dose-dependent manner
